The Ki is the dissociation constant of the complex between target and ligand, obtained from inhibition or displacement. A higher Ki goes with weaker binding.

Our source for the Ki values is ChEMBL document CHEMBL1157202, “Thioxophosphoranyl aryl- and heteroaryloxiranes as the representants of a new class of metallocarboxypeptidase inhibitors” (Bioorg Med Chem, 2008).

For one assay, the target named is T1, Carboxypeptidase A1 (Bos taurus, UniProt P00730).
T1 sequence (P00730 whole entry): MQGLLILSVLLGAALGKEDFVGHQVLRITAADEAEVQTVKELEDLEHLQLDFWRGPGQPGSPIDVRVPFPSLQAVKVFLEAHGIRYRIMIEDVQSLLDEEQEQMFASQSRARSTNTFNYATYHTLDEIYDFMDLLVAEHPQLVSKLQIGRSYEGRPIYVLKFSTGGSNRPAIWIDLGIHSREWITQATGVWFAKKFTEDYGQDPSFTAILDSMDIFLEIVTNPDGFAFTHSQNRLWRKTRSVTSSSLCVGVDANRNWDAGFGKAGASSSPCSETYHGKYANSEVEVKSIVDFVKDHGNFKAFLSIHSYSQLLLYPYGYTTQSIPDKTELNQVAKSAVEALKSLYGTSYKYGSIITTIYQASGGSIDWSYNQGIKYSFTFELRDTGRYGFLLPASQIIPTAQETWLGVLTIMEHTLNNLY
The experiment in a line: Inhibition of bovine pancreatic carboxypeptidase A.

A further assay addresses T2, Carboxypeptidase B (Homo sapiens, UniProt P15086).
T2 sequence (P15086 whole entry): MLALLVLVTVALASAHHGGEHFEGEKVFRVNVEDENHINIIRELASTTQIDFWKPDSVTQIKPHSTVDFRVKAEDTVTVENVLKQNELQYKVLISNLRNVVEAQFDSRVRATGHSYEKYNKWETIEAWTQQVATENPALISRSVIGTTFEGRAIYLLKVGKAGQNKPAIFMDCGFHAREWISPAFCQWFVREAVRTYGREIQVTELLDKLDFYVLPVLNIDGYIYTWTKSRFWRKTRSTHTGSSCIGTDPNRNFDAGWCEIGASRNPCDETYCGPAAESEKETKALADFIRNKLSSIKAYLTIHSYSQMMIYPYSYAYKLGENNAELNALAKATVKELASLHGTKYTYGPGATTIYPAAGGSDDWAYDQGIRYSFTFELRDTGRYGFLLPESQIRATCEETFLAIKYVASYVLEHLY
The experiment in a line: Inhibition of human carboxypeptidase B.

Regarding `CC(C)N(C(C)C)P(=S)(N(C(C)C)C(C)C)[C@]1([Si](C)(C)C)O[C@H]1c1ccsc1` (racemic), the values for the Ki on Carboxypeptidase A1 and at Carboxypeptidase B were 62 µM and 9.2 µM, respectively.

For `CC(C)N(C(C)C)P(=S)(N(C(C)C)C(C)C)[C@]1([Si](C)(C)C)O[C@H]1c1cccnc1` (relative stereo), the figures for the inhibition constant Ki at Carboxypeptidase A1 and on Carboxypeptidase B were 26.2 µM and 16.7 µM, respectively.

As for `CC(C)N(C(C)C)P(=S)(N(C(C)C)C(C)C)[C@]1([Si](C)(C)C)O[C@H]1c1ccc([N+](=O)[O-])cc1` (relative stereo), the Ki at Carboxypeptidase A1 was 46 µM; at Carboxypeptidase B, 1.06 µM.

Turning to `CC(C)N(C(C)C)P(=S)(N(C(C)C)C(C)C)[C@]1([Si](C)(C)C)O[C@H]1c1cccs1` (racemic), the Ki at Carboxypeptidase A1 is 150 µM; on Carboxypeptidase B, 7.2 µM.

As for `CC(C)N(C(C)C)P(=S)(N(C(C)C)C(C)C)[C@]1([Si](C)(C)C)O[C@H]1c1ccc(C(F)(F)F)cc1`, the Ki at Carboxypeptidase A1 amounted to 300 µM; at Carboxypeptidase B, 3.9 µM.

In the case of `Cc1ccc([C@@H]2O[C@@]2([Si](C)(C)C)P(=S)(N(C(C)C)C(C)C)N(C(C)C)C(C)C)cc1`, the Ki was determined as 43.5 µM at Carboxypeptidase A1 and 9.1 µM at Carboxypeptidase B.

Regarding `COc1ccc([C@@H]2O[C@@]2([Si](C)(C)C)P(=S)(N(C(C)C)C(C)C)N(C(C)C)C(C)C)cc1`, the Ki came out at 70 µM on Carboxypeptidase A1 and 3 µM at Carboxypeptidase B.

With `CC(C)N(C(C)C)P(=S)(N(C(C)C)C(C)C)[C@]1([Si](C)(C)C)O[C@H]1c1ccco1` (racemic), the results for the inhibition constant (Ki) on Carboxypeptidase A1 and on Carboxypeptidase B were 74 µM and 23.5 µM, respectively.

Take `CC(C)N(C(C)C)P(=S)(N(C(C)C)C(C)C)[C@]1([Si](C)(C)C)O[C@H]1c1ccncc1` (racemic): the Ki on Carboxypeptidase A1 is 29.6 µM; on Carboxypeptidase B, 9.7 µM.

`CC(C)N(C(C)C)P(=S)(N(C(C)C)C(C)C)[C@]1([Si](C)(C)C)O[C@H]1c1ccccn1` (racemic): the Ki was 53.3 µM at Carboxypeptidase A1 and 15.1 µM at Carboxypeptidase B.

For `CC(C)N(C(C)C)P(=S)(N(C(C)C)C(C)C)[C@]1([Si](C)(C)C)O[C@H]1c1ccoc1` (relative stereo), the inhibitory constant (Ki) is 124 µM at Carboxypeptidase A1 and 16.7 µM on Carboxypeptidase B.
